Legend:
Type in all cases: in vitro ADME
[1] = Plasma protein binding rate by ultrafiltration, human plasma
Experimental: The glytrexate stock solution was diluted with 20% methanol (1% formic acid) to three mass concentrations of 50, 100, and 200 μg/ml for use. One hundred microliters of glytrexate solution of the corresponding concentration (3 duplicates each in parallel) was added to 900 μl of rat/human plasma, vortexed and mixed well to prepare plasma samples with plasma concentrations of 5, 10, and 20 μg/ml.
The plasma sample was placed in a constant temperature water bath at 37°C for a certain period to obtain an incubation solution. After the incubation solution was removed, it was placed on ice to maintain a low temperature, transferred to a filtrate tube (500 μl), and placed in a low-temperature refrigerated centrifuge at 4°C and 14,000 rpm for 20 min to obtain filtrate.
The test tube containing the drug concentration was incubated in a constant temperature water bath at 37°C. Each sample was obtained at 10 min, 30 min, 60 min, 120 min, 240 min, and 360 min and the drug concentration before and after ultrafiltration was determined. The plasma protein binding rate (%) = [(Cincubation solution-CUltrafiltrate)/Cincubation solution]×100%. GraphPad Prism 8 software was used to perform a one-way analysis of variance on the plasma protein binding rate of glytrexate between different mass concentrations in the same species.

[2] = Storage stability of glytrexate in rat plasma (short-term, autosampler, freeze-thaw, long-term)
Experimental: For short-term and long-term stability, plasma samples (LQC and HQC) were kept at room temperature for 8 h and at −20°C for 14 consecutive days, respectively. To evaluate the freeze-thaw stability, plasma samples (n = 6) were investigated through three cycles from −20°C to 25°C, and the stability of the postpreparative samples after 8 h was evaluated in autosampler vials at 4°C. The results were evaluated by calculating the peak area ratio (glytrexate/IS) of the stability samples. If glytrexate is stable in rat plasma, the accuracy (RE) should be within ±15% and the precision (RSD) < 15%.

[3] = Stability on incubation in artificial gastrointestinal fluids at 37°C; details: up to 3 h, 100 μg/ml
Experimental: Blank artificial gastric fluid: hydrochloric acid (2.75 mol/L, 16.4 ml) was diluted with 800 ml of water, adjusted to the pH 1.3 with 0.1 mol/L hydrochloric acid solution, diluted with water and diluted to 1000 ml.
Artificial gastric fluid: hydrochloric acid (2.75 mol/L, 16.4 ml) was diluted with 800 ml of water, and then 10 g of pepsin was added and shaken well until dissolved. The pH was adjusted to 1.3 with 0.1 mol/L hydrochloric acid solution, and then the artificial gastric fluid solution was diluted with water to 1000 ml.
Blank artificial intestinal fluid: potassium dihydrogen phosphate (6.8 g) was diluted with 500 ml of water, and shaken until dissolved. The pH was adjusted to 6.8 with 0.1 mol/L sodium hydroxide solution, and the solution was diluted with water to 1000 ml. […]
The test tube containing the drug concentration was incubated in a constant temperature water bath at 37°C. Each sample was obtained at 0, 0.5, 1.0, 1.5, 2.0, and 3.0 h, and the drug concentration was measured. […]
Fifty microliters of the above solution was accurately drawn at different incubation time points, and 155 μl of ice-cold methanol (1% formic acid) and 5 μl of IS solution were added. […] An appropriate amount of the supernatant was placed into the sample vial, and analyzed. […]
All samples were analyzed using the established LC‒MS/MS method, and MultiQuant 3.0 software was used for data processing. […]

[4] = 4°C for 8 h in rat plasma, spiked 5 ng/ml
[5] = 4°C for 8 h in rat plasma, spiked 1600 ng/ml
[6] = room temperature for 8 h in rat plasma, spiked 5 ng/ml
[7] = room temperature for 8 h in rat plasma, spiked 1600 ng/ml
[8] = three freeze‒thaw cycles in rat plasma, spiked 5 ng/ml
[9] = three freeze‒thaw cycles in rat plasma, spiked 1600 ng/ml
[10] = −20°C for 14 days in rat plasma, spiked 5 ng/ml
[11] = −20°C for 14 days in rat plasma, spiked 1600 ng/ml

fraction unbound at 30 min, 5 μg/ml ([1]; 5 μg/ml, 37°C, 30 min incubation, ultrafiltration): 0.758 | fraction unbound at 30 min, 10 μg/ml ([1]; 10 μg/ml, 37°C, 30 min incubation, ultrafiltration): 0.754 | fraction unbound at 30 min, 20 μg/ml ([1]; 20 μg/ml, 37°C, 30 min incubation, ultrafiltration): 0.807 | fraction unbound ([1]; over 5, 10 and 20 μg/ml): ~0.75 | % Deviation after storage [2, 4]: −11.50% | Mean measured concentration after storage [2, 4]: 4.43 ± 0.21 ng/mL | % Deviation after storage [2, 5]: −2.11% | Mean measured concentration after storage [2, 5]: 1566.21 ± 100.13 ng/mL | % Deviation after storage [2, 6]: −10.23% | Mean measured concentration after storage [2, 6]: 4.49 ± 0.40 ng/mL | % Deviation after storage [2, 7]: −0.82% | Mean measured concentration after storage [2, 7]: 1586.82 ± 103.89 ng/mL | % Deviation after storage [2, 8]: −2.27% | Mean measured concentration after storage [2, 8]: 4.89 ± 0.68 ng/mL | % Deviation after storage [2, 9]: −1.81% | Mean measured concentration after storage [2, 9]: 1571.07 ± 105.54 ng/mL | % Deviation after storage [2, 10]: −6.40% | Mean measured concentration after storage [2, 10]: 4.68 ± 0.40 ng/mL | % Deviation after storage [2, 11]: −2.01% | Mean measured concentration after storage [2, 11]: 1567.82 ± 112.14 ng/mL | stability in artificial gastrointestinal fluid (in words) [3]: did not remain stable
Structure (SMILES): Nc1nc2[nH]c(CC(=O)NCC(=O)N[C@@H](CCC(=O)O)C(=O)O)cc2c(=O)[nH]1 [glytrexate, (S)-2-{2-[2-(2-amino-4-oxo-4,7-dihydro-3H-pyrrolo [2,3-d]pyrimidin-6-yl)-acetylamino]-acetylamino}-pentanedioic acid]
